# Test results reported in patent publication US12678403B2, “Pharmaceutical composition for preventing or treating obesity or non-alcoholic fatty liver containing Polygalin C as active ingredient” (UNIVERSITY-INDUSTRY COOPERATION GROUP OF KYUNG HEE …, priority 2021, dated 2026).
# Experiments:
# 3T3-L1 cells [1] = experiment: MTT assay, cytotoxicity of PC in 3T3-L1 cells; type: cell-based, mouse; conditions: 0-100 μM PC, 48 hours
# Description: 3T3-L1 preadipocytes were inoculated into a 96-well cell culture plate by 1×10^4 cells/well and incubated overnight. The medium was then replaced with DMEM including different concentrations of PC (0, 5, 10, 25, 50, 75, and 100 μM) for 48 hours.
# (§1) After PC treatment, cells were incubated with MTT solution (0.5 mg/ml dissolved in PBS) for 2 hours. After incubation, the medium in each well was removed, and dimethyl sulfoxide was added to dissolve the precipitated formazan. When formazan was completely dissolved, the absorbance was measured at 540 nm using a microplate reader (Bio-Rad) to determine cell viability.
# In order to identify cytotoxicity of PC in 3T3-L1 cells, various concentrations of PC (0, 5, 10, 25, 50, 75, and 100 μM) were treated for 48 hours, and then cell viability was determined using MTT assay.
# SREBP1c [2] = experiment: Real-time PCR, SREBP1c RNA in 3T3-L1 adipocytes; type: cell-based, mouse; conditions: vs fully differentiated adipocytes
# Description: (§2) 3T3-L1 cells were inoculated into a 6-well plate in a density of 8×10^4 cells/well, and the medium was replaced until the confluence is satisfied. For differentiation, cells were incubated in differentiation media (0.5 mM IBMX, 0.5 μM dexamethasone, and 1 μg/mL insulin). The medium was then replaced with a maintenance culture including 1 μg/mL insulin and PC (0-50 μM) once every 2 days.
# (§3) Cells were treated with Ribo-Ex to extract RNA using GeneAll Hybrid-R RNA purification kit (GeneAll, Seoul, Korea). RNA was quantified using NanoDrop (Thermo Fisher Scientific). Amplification of complementary DNA was performed at 45° C. for 60 minutes and 95° C. for 15 minutes using a Maxime RT premix (iNtRON Biotechnology, South Korea). Real-time quantitative PCR was performed using the Universal SYBR Green Master Mix (Applied Biosystems, Foster City, CA, USA). Real-time PCR was performed on Applied Biosystems StepOne System (Applied Biosystems). In this study, relative target gene expression was quantified relatively to gene expression of glyceraldehyde 3-phosphate dehydrogenase to determine mRNA expression levels.
# (§4) In order to determine whether the PC inhibits the adipogenic factors, the degree of expression of the adipogenic factors was examined through Western blotting and real-time PCR. FAS and SREBP1 play an important role in adipogenesis, protein expression levels of which were investigated. […]
# Akt = experiment: Western blotting, activated Akt in MDI-induced adipocytes; type: cell-based, mouse
# Description: as §2
# (§5) Cell lysis buffer (Cell Signaling Technology) was used to lyse cells. The reagent for Bio-Rad protein assay was used to measure protein concentrations for Bradford assay. Each sample was separated by sodium dodecyl sulfate polyacrylamide gel electrophoresis using 8% acrylamide gel and then electrotransferred to a nitrocellulose membrane. The membrane was blocked with 3% bovine serum albumin (BSA) in Tris buffered saline/Tween 20 (TBS-T) at 4° C. for 1 hour and incubated overnight at 4° C. with COX-2, C/EBPα, PPARγ, SREBP1c, FAS, p-ACC, t-ACC, p-AMPK, t-AMPK (1:2000), and β-actin (1:10,000) antibodies. The membrane was extensively washed with TBS-T at 3 or more times for 30 minutes and incubated with goat anti-rabbit IgG-horseradish peroxidase (HRP) and goat anti-mouse IgG-HRP (1:10,000 all in TBS-T) secondary antibodies for 1 hour.
# (§6) Next, MAPK and Akt signaling in adipocytes in the presence of PC were investigated by Western Blotting.
# HepG2 cells [3] = experiment: Oil Red O staining, fat accumulation in fatty liver-induced HepG2 cells; type: cell-based, human; conditions: PC 0, 25, 50 μM, vs cells solely treated with NEFA
# Description: (§7) HepG2 cells were inoculated into a 6-well plate in a density of 3×10^5 cells/well and incubated for one day. Then, for fatty liver induction, an FBS-free RPMI medium supplemented with 1% bovine serum albumin (BSA) and NEFA (0.66 mM oleic acid and 0.33 mM palmitic acid) was treated, followed by incubation for 24 hours. When treated with PC (0-50 μM), fatty liver induction medium was treated together for incubation for 24 hours.
# (§8) The treated cells were washed with PBS and fixed with 10% formalin for 1 hour. The cells were then washed with 60% isopropanol and dried completely. A 60% Oil Red O working solution diluted in distilled water (DW) was added to the cells. In the case of hepatocytes, in order to observe the morphology of the cells, they were additionally treated with hematoxylin for 1 minute for staining. The stained cells were washed with DW 3 times and photographed using the Olympus IX71 microscope (Olympus, Tokyo, Japan). To quantify lipid accumulation, stained cells were dissolved in 100% isopropanol, and measurement was performed at 490 nm with a microplate reader (Bio-Rad).
# To investigate whether PC has an inhibitory effect on fat accumulation, cells were treated in the presence and absence of PC at various concentrations (0, 25, and 50 μM), using Oil red O staining. […] Thus, PC reduced accumulation of lipid in fatty liver-induced HepG2 cells.
# SREBP1c [4] = experiment: Western blotting, SREBP1c protein in 3T3-L1 adipocytes; type: cell-based, mouse; conditions: dose-dependently, vs fully differentiated adipocytes
# Description: as §2
# as §5, with “hour. […]” for “hour.”
# C/EBPα [5] = experiment: Real-time PCR, C/EBPα mRNA in 3T3-L1 adipocytes; type: cell-based, mouse; conditions: vs fully differentiated adipocytes
# Description: as §2, §3
# (§9) To investigate how PC inhibits adipose tissue generation in 3T3-L1 cells, investigation was performed on protein expression levels of key adipose tissue generation markers. C/EBPα and PPARγ are well-known major transcription factors in adipose tissue generation. […]
# ACC = experiment: Western blotting, ACC phosphorylation in 3T3-L1 adipocytes; type: cell-based, mouse
# Description: as §2, §5
# (§10) The MAPK/Akt and AMPK/ACC signaling pathways are involved in the general steps of adipose tissue generation. […]
# C/EBPδ = experiment: Real-time PCR, C/EBPδ mRNA in 3T3-L1 adipocytes; type: cell-based, mouse; conditions: vs adipocytes
# Description: as §2, §3
# (§11) In order to additionally identify expression of other adipose tissue generation markers such as C/EBPβ and C/EBPδ, mRNA levels of these markers were examined.
# 3T3-L1 cells [6] = experiment: Oil Red O staining, adipocyte differentiation / lipid accumulation in 3T3-L1 preadipocytes; type: cell-based, mouse; conditions: 3T3-L1 cells differentiated with PC 0, 25, 50 μM; vs fully differentiated adipocytes
# Description: as §2, §8
# To investigate whether PC has an inhibitory effect on adipose tissue differentiation, cells were differentiated in the presence and absence of PC at various concentrations (0, 25, and 50 μM), and then Oil red O staining was used. […] Thus, PC reduced accumulation of lipids in 3T3-L1 cells during adipose tissue generation differentiation.
# MAPK kinase = experiment: Western blotting, activated MAPK kinase in MDI-induced adipocytes; type: cell-based, mouse; conditions: MDI-induced adipocytes (ERK, JNK, p38)
# Description: as §2, §5, §6
# ACC1 = experiment: Western blotting, ACC1 in NEFA-induced fatty liver HepG2 cells; type: cell-based, human; conditions: dose-dependently, vs NEFA-induced fatty liver cells
# Description: as §7, §5
# (§12) Due to treatment of free fatty acids such as NEFA, fatty liver is induced by fat accumulation. […]
# COX-2 = experiment: Western blotting, COX-2 in NEFA-induced fatty liver HepG2 cells; type: cell-based, human; conditions: NEFA-treated HepG2 cells
# Description: as §7, §5
# It is known that if the symptoms persist in the fatty liver stage, it causes an inflammatory reaction to develop steatohepatitis. […]
# C/EBPβ = experiment: Real-time PCR, C/EBPβ mRNA in 3T3-L1 adipocytes; type: cell-based, mouse; conditions: vs adipocytes
# Description: as §2, §3, §11
# PPARγ [7] = experiment: Real-time PCR, PPARγ mRNA in 3T3-L1 adipocytes; type: cell-based, mouse; conditions: vs fully differentiated adipocytes
# Description: as §2, §3, §9
# FAS [8] = experiment: Western blotting, FAS in NEFA-induced fatty liver HepG2 cells; type: cell-based, human; conditions: dose-dependently, vs NEFA-induced fatty liver cells
# Description: as §7, §5, §12
# PPARγ [9] = experiment: Western blotting, PPARγ protein in MDI-induced 3T3-L1 adipocytes; type: cell-based, mouse; conditions: vs MDI-induced group
# Description: as §2, §5
# (§13) To investigate how PC inhibits adipose tissue generation in 3T3-L1 cells, investigation was performed on protein expression levels of key adipose tissue generation markers. […]
# HepG2 cells [10] = experiment: MTT assay, cell viability in NEFA-treated fatty liver-induced HepG2 cell model; type: cell-based, human; conditions: 1 mM NEFA with 50 µM PC, 24 hours
# Description: as §7
# (§14) HepG2 hepatocytes were inoculated into a 96-well cell culture plate by 1×10^4 cells/well and incubated overnight. Then, for 24 hours, they were replaced with fatty liver induction media including different concentrations of PC (0, 5, 10, 25, 50, and 100 μM).
# as §1
# To determine the preventive and therapeutic effects of PC in fatty liver-induced cell models, treatment of 1 mM NEFA as well as various concentrations of PC (0, 5, 10, 25, 50 μM) were performed for 24 hours, and then MTT assay was used to determine cell viability.
# HepG2 cells [11] = experiment: MTT assay, cytotoxicity of PC and NEFA in HepG2 cells; type: cell-based, human; conditions: 0-100 μM PC, 24 hours
# Description: as §14, §1
# In order to identify cytotoxicity of PC and NEFA in HepG2 cells, various concentrations of PC (0, 5, 10, 25, 50, and 100 μM) or NEFA (0, 0.5, 1, and 2 mM) were treated for 24 hours, and then MTT assay was used to determine cell viability.
# C/EBPα [12] = experiment: Western blotting, C/EBPα protein in MDI-induced 3T3-L1 adipocytes; type: cell-based, mouse; conditions: vs MDI-induced group
# Description: as §2, §5, §13
# FAS [13] = experiment: Western blotting, FAS protein in 3T3-L1 adipocytes; type: cell-based, mouse; conditions: dose-dependently, vs fully differentiated adipocytes
# Description: as §2
# as §5, with “hour. […]” for “hour.”
# FAS [14] = experiment: Real-time PCR, FAS RNA in 3T3-L1 adipocytes; type: cell-based, mouse; conditions: vs fully differentiated adipocytes
# Description: as §2, §3, §4
# SREBP1c [15] = experiment: Immunofluorescence analysis, SREBP1c in MDI-induced adipocytes; type: cell-based, mouse
# Description: The cells were treated with or without PC in a 4-well confocal dish. After treatment, the cells were fixed with 10% formalin for 10 minutes, treated with 0.2% Triton X diluted in PBS for 20 minutes, washed with PBS 3 times, and blocked with 5% BSA dissolved in PBS for 1 hour. Next, cells were incubated overnight in the presence of anti-SREBP1 antibodies (1:500 in PBS) at 4° C., followed by incubation in the presence of Alexa Fluor-555 antibody for 1 hour at room temperature. The cell nucleus was stained with 4,6-diamidino-2-phenylindole (DAPI: Sigma-Aldrich) at room temperature for 3 minutes. DAPI-stained cells were washed with PBS for 30 minutes, and fluorescence was observed using CELENA™ S Digital Imaging System (Logos Biosystems, Inc.).
# In order to determine whether the PC inhibits the adipogenic factors, the degree of expression of the adipogenic factors was examined through Western blotting and real-time PCR. FAS and SREBP1 play an important role in adipogenesis, protein expression levels of which were investigated. […] In addition, according to FIGS. 3B and 3C, the RNA level was reduced compared to fully differentiated adipocytes.
# AMPK = experiment: Western blotting, AMPK phosphorylation in 3T3-L1 adipocytes; type: cell-based, mouse
# Description: as §2, §5, §10
# [16] = PC treatment, 3T3-L1 adipocytes
# [17] = vs fully differentiated adipocytes
substance,measurement,setting,value
Polygalin C [PC],"concentration with non-toxic effect (cell viability, MTT)",3T3-L1 cells [1],up to 50 μM
same,RNA level of SREBP1c,SREBP1c [2],reduced
same,expression level of activated Akt,Akt,significantly reduced dose-dependently
same,production of lipid droplets (Oil red O),HepG2 cells [3],dose-dependently inhibited
same,protein expression level of SREBP1c,SREBP1c [4],significantly reduced
same,mRNA expression level of C/EBPα,C/EBPα [5],reduced
same,total ACC expression level,ACC; [16],unchanged
same,phosphorylation of ACC,ACC; [17],significantly increased
same,mRNA level of C/EBPδ,C/EBPδ,decreased concentration-dependently
same,production of lipid droplets (Oil red O),3T3-L1 cells [6],dose-dependently inhibited
same,expression level of activated MAPK kinase,MAPK kinase,significantly reduced dose-dependently
same,expression level of ACC1,ACC1,significantly reduced
same,expression of COX-2 induced by NEFA treatment,COX-2,reduced concentration-dependently
same,mRNA level of C/EBPβ,C/EBPβ,decreased concentration-dependently
same,mRNA expression level of PPARγ,PPARγ [7],reduced
same,expression level of FAS,FAS [8],significantly reduced
same,relative protein level of PPARγ,PPARγ [9],decreased dose-dependently
same,cell viability (MTT) in NEFA-treated cells,HepG2 cells [10],cell viability was restored
same,"concentration with non-toxic effect (cell viability, MTT)",HepG2 cells [11],up to 100 μM
same,relative protein level of C/EBPα,C/EBPα [12],decreased dose-dependently
same,protein expression level of FAS,FAS [13],significantly reduced
same,RNA level of FAS,FAS [14],reduced
same,MDI-induced SREBP1c expression (immunofluorescence),SREBP1c [15],significant relieving effect
same,total AMPK expression level,AMPK; [16],unchanged
same,phosphorylation of AMPK,AMPK; [17],significantly increased
